Laboratory results from patent publication US9586970B2, “Imidazole derivatives” (Hoffmann-La Roche Inc., priority 2014, dated 2017).

Target: human PDE10A (Homo sapiens (Human), UniProt Q9Y233)
Assay: human PDE10A full length assay ([3H]-cGMP SPA)
Format: biochemical
Conditions: full length PDE10A enzyme, 50 nM cGMP + 50 nM [3H]-cGMP, 20 minutes at room temperature; read-out: PDE10A inhibition IC50
Description: The human PDE10A full length assay was performed in 96-well micro titer plates. The reaction mixture of 50 μl contained 20 mM HEPES pH=7.5/10 mM MgCl2/0.05 mg/ml BSA (Sigma cat. #A-7906), 50 nM cGMP (Sigma, cat. #G6129) and 50 nM [3H]-cGMP (GE Healthcare, cat. #TRK392 S.A. 13.2 Ci/mmol), 3.75 ng/well PDE10A enzyme (Enzo Life Science, Lausen, Switzerland cat #SE-534) with or without a specific test compound. A range of concentrations of the potential inhibitor was used to generate data for calculating the concentration of inhibitor resulting in 50% of the effect (e.g. IC50, the concentration of the competitor inhibiting PDE10A activity by 50%). Non-specific activity was tested without the enzyme. The reaction was initiated by the addition of the substrate solution (cGMP and [3H]-cGMP) and allowed to progress for 20 minutes at room temperature. The reaction was terminated by adding 25 μl of YSi-SPA scintillation beads (GE Healthcare, cat. # RPNQ0150) in 18 mM zinc sulphate solution (stop reagent). After 1 h under shaking, the plate was centrifuged one minute at 170 g to allow beads to settle. Afterwards, radioactive counts were measured on a Perkin Elmer TopCount Scintillation plate reader.

Chain of human PDE10A (Q9Y233 other isoform, or with tags, fused parts or gaps): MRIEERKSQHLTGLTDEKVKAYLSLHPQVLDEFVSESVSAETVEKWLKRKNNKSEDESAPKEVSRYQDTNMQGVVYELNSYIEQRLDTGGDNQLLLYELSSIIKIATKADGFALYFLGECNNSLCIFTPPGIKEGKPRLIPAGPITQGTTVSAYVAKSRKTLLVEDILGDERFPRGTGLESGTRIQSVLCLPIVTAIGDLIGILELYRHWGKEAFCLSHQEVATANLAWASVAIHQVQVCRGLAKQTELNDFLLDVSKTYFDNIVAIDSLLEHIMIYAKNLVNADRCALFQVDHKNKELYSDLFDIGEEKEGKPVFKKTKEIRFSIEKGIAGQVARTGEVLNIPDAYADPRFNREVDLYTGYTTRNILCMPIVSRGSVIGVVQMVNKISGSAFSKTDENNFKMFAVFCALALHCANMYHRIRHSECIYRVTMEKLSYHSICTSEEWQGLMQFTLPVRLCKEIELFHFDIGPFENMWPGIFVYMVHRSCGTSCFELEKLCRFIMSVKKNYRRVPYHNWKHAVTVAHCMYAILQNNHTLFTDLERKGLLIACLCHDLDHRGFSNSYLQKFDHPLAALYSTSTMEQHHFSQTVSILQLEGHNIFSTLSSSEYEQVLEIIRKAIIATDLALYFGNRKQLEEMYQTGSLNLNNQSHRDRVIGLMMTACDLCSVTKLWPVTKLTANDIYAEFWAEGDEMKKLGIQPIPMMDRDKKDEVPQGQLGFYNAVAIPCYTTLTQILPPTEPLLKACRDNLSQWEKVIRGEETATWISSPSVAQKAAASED

Row | Molecule | IC50
1 | Cc1ncc(C)n2nc(/C=C/c3nc(N4CCCC4=O)cn3-c3ccccc3)nc12 [Example 3] | 9.5 nM
2 | Cc1ncc(C)n2nc(/C=C/c3nc(N4CCCC4=O)cn3C3CC3)nc12 [Example 6, 1-[1-cyclopropyl-2-[(E)-2-(5,8-dimethyl-[1,2,4]triazolo[1,5-a]pyrazin-2-yl)ethenyl]imidazol-4-yl]pyrrolidin-2-one] | 81 nM
3 | 1-{2-[(E)-2-{4,7-Dimethyl-[1,2,4]triazolo[1,5-a]pyrazin-2-yl}ethenyl]-1-phenyl-1H-imidazol-4-yl}pyrrolidin-2-one [Example 20] | 19.4 nM
4 | Cc1c(C(F)(F)F)nc2ccc(CCc3nc(N4CCCC4=O)cn3-c3ccccc3)nn12 [Example 23, 1-(2-{2-[3-Methyl-2-(trifluoromethyl)imidazo[1,2-b]pyridazin-6-yl]ethyl}-1-phenyl-1H-imidazol-4yl)pyrrolidin-2-one] | 3.1 nM
5 | Cc1ncc(C)n2nc(CCc3nc(N4CCCC4=O)cn3C)nc12 [Example 11, 1-[2-(2-{4,7-Dimethyl-[1,2,4]triazolo[1,5-a]pyrazin-2-yl}ethyl)-1-methyl-1H-imidazol-4-yl]pyrrolidin-2-one] | 18 nM
6 | CNC(=O)c1cc(CCc2nc(N3CCCC3=O)cn2C)nn2c(C)c(C(F)(F)F)nc12 [Example 26] | 112 nM
7 | Cc1ncc(C)n2nc(CCc3nc(N4CCCC4=O)cn3-c3ccccc3)nc12 [Example 2, 1-(2-(2-(5,8-dimethyl-[1,2,4]triazolo[1,5-a]pyrazin-2-yl)ethyl)-1-phenyl-1H-imidazol-4-yl)pyrrolidin-2-one] | 1.3 nM
8 | Cc1c(C(F)(F)F)nc2ccc(C#Cc3nc(N4CCCC4=O)cn3-c3ccccc3)nn12 [Example 25, 1-(2-{2-[3-methyl-2-(trifluoromethyl)imidazo[1,2-b]pyridazin-6-yl]ethynyl}-1-phenyl-1H-imidazol-4-yl) pyrrolidin-2-one] | 21.9 nM
9 | CNC(=O)c1cc(CCc2nc(N3CCCC3=O)cn2-c2ccccc2)nn2c(C)c(C(F)(F)F)nc12 [Example 27, N,3-Dimethyl-6-{2-[4-(2-oxopyrrolidin-1-yl)-1-phenyl-1H-imidazol-2-yl]ethyl}-2-(trifluoromethyl)imidazo[1,2-b]pyridazine-8-carb oxamide] | 2.9 nM
10 | Cc1cnc(C)n2nc(CCc3nc(N4CCCC4=O)cn3CC(F)(F)F)nc12 [Example 18, 1-[2-(2-{5,8-dimethyl-[1,2,4]triazolo[1,5-c]pyrimidin-2-yl}ethyl)-1-(2,2,2-trifluoroethyl)-1H-imidazol-4-yl]pyrrolidin-2-one] | 168 nM
11 | Cc1ncc(C)n2nc(CCc3nc(-n4ccccc4=O)cn3CC3CC3)nc12 [Example 4, 1-(1-(Cyclopropylmethyl)-2-(2-(5,8-dimethyl-[1,2,4]triazolo[1,5-a]pyrazin-2-yl)ethyl)-1H-imidazol-4-yl)pyridin-2(1H)-one] | 150 nM
12 | Cc1cc(C)n2nc(CCc3nc(N4CCCC4=O)cn3C)nc2n1 [Example 21, 1-[2-(2-{5,7-dimethyl-[1,2,4]triazolo[1,5-a]pyrimidin-2-yl}ethyl)-1-methyl-1H-imidazol-4-yl]pyrrolidin-2-one] | 176 nM
13 | Cc1c(C(F)(F)F)nc2ccc(CCc3nc(N4CCCC4=O)cn3C)nn12 [Example 22, 1-(1-Methyl-2-{2-[3-methyl-2-(trifluoromethyl)imidazo[1,2-b]pyridazin-6-yl]ethyl}-1H-imidazol-4yl) pyrrolidin-2-one] | 117 nM
14 | Cc1ncc(C)n2nc(/C=C/c3nc(N4CCN(C)C4=O)cn3C)nc12 [Example 8, 2′-[(E)-2-(5,8-Dimethyl-[1,2,4]triazolo[1,5-a]pyrazin-2-yl)-vinyl]-3, 1′-dimethyl-4,5-dihydro-3H, 1′H-[1,4′]biimidazolyl-2-one] | 162 nM
15 | Cc1cnc(C)n2nc(CCc3nc(N4CCCC4=O)cn3CC(F)F)nc12 [Example 19, 1-[1-(2,2-difluoroethyl)-2-(2-{5,8-dimethyl-[1,2,4]triazolo[1,5-c]pyrimidin-2-yl}ethyl)-1H-imidazol-4-yl]pyrrolidin-2-one] | 26.8 nM
16 | Cc1ncc(C)n2nc(CCc3nc(N4CCCC4=O)cn3CC3CC3)nc12 [Example 12, 1-[1-(Cyclopropylmethyl)-2-(2-{4,7-dimethyl-[1,2,4]triazolo[1,5-a]pyrazin-2-yl}ethyl)-1H-imidazol-4-yl]pyrrolidin-2-one] | 16.9 nM
17 | Cc1ncc(C)n2nc(CCc3nc(N4CCCC4=O)cn3CC(F)(F)F)nc12 [Example 13, 1-[2-(2-{4,7-Dimethyl-[1,2,4]triazolo[1,5-a]pyrazin-2-yl}ethyl)-1-(2,2,2-trifluoroethyl)-1H-imidazol-4-yl]pyrrolidin-2-one] | 36.7 nM

The remaining molecules from weak to strong by IC50, led by results:

Row | IC50 | Molecule
18 | 195 nM | Cc1ncc(C)n2nc(CCc3nc(-n4ccccc4=O)cn3C)nc12 [Example 5, 1-(2-(2-(5,8-dimethyl-[1,2,4]triazolo[1,5-a]pyrazin-2-yl)ethyl)-1-methyl-1H-imidazol-4-yl)pyridin-2(1H)-one]
19 | 75.5 nM | Cc1c(C(F)(F)F)nc2ccc(C#Cc3nc(N4CCCC4=O)cn3C)nn12 [Example 24, 1-(1-Methyl-2-{2-[3-methyl-2-(trifluoromethyl)imidazo[1,2-b]pyridazin-6-yl]ethynyl}-1H-imidazol-4-yl)pyrrolidin-2-one]
20 | 54.6 nM | Cc1ncc(C)n2nc(/C=C/c3nc(N4CCCC4=O)cn3C)nc12 [Example 10, 1-{2-[(E)-2-{4,7-dimethyl-[1,2,4]triazolo[1,5-a]pyrazin-2-yl}ethenyl]-1-methyl-1H-imidazol-4-yl}pyrrolidin-2-one]
21 | 46.9 nM | Cc1ncc(C)n2nc(CCc3nc(N4CCCC4=O)cn3CC(F)F)nc12 [Example 14, 1-[1-(2,2-difluoroethyl)-2-(2-{4,7-dimethyl-[1,2,4]triazolo[1,5-a]pyrazin-2-yl}ethyl)-1H-imidazol-4-yl]pyrrolidin-2-one]
22 | 39 nM | Cc1cnc(C)n2nc(CCc3nc(N4CCCC4=O)cn3C)nc12 [Example 1, 1-(2-(2-(5,8-dimethyl-[1,2,4]triazolo[1,5-c]pyrimidin-2-yl)ethyl)-1-methyl-1H-imidazol-4-yl)pyrrolidin-2-one]
23 | 29 nM | Cc1ncc(C)n2nc(C#Cc3nc(N4CCCC4=O)cn3C)nc12 [Example 15, 1-[2-(2-{4,7-Dimethyl-[1,2,4]triazolo[1,5-a]pyrazin-2-yl}ethynyl)-1-methyl-1H-imidazol-4-yl]pyrrolidin-2-one]
24 | 27 nM | Cc1ncc(C)n2nc(CCc3nc(N4CCCC4=O)cn3C3CC3)nc12 [Example 7, 1-{1-Cyclopropyl-2-[2-(5,8-dimethyl-[1,2,4]triazolo[1,5-a]pyrazin-2-yl)-ethyl]-1H-imidazol-4-yl}-pyrrolidin-2-one]
25 | 14.8 nM | Cc1cnc(C)n2nc(CCc3nc(N4CCCC4=O)cn3CC3CC3)nc12 [Example 16, 1-[1-(Cyclopropylmethyl)-2-(2-{5,8-dimethyl-[1,2,4]triazolo[1,5-c]pyrimidin-2-yl}ethyl)-1H-imidazol-4-yl]pyrrolidin-2-one]
26 | 4.6 nM | Cc1nc(C#Cc2nc(N3CCCC3=O)cn2C)nc2c(C)cccc12 [Example 9, 1-(2-((4,8-dimethylquinazolin-2-yl)ethynyl)-1-methyl-1H-imidazol-4-yl)pyrrolidin-2-one]
27 | 3.2 nM | Cc1cnc(C)n2nc(CCc3nc(N4CCCC4=O)cn3-c3ccccc3)nc12 [Example 17, 1-[2-[2-(5,8-dimethyl-[1,2,4]triazolo[1,5-c]pyrimidin-2-yl)ethyl]-1-phenyl-imidazol-4-yl]pyrrolidin-2-one]
